The text below walks through data of patent US10179777B2, “3-(1H-benzimidazol-2-yl)-1H-pyridin-2-one derivatives” (MERCK PATENT GMBH, priority 2015, dated 2019).

Where a name gives a salt, the structure may show the parent alone.

Experiment [1] deals with T1, ALK1 (GST-modified kinase domain ACVRL1 (139-503)) (Homo sapiens, UniProt P37023).
T1 construct: N-terminally GST-modified kinase domain ACVRL1 (139-503); GST (N)
T1 sequence (P37023 139-503): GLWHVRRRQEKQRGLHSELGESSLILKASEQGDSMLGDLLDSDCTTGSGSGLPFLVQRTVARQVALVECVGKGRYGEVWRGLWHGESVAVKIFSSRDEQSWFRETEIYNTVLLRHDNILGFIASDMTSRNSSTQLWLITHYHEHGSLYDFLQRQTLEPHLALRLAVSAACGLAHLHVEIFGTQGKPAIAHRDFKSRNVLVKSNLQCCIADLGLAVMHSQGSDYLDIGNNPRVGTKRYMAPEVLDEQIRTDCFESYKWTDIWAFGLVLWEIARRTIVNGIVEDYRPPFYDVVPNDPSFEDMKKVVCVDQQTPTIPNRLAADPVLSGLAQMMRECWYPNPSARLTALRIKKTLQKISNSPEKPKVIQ
Kind of experiment: ALK1 kinase inhibition assay (33P-ATP filter binding, Reaction Biology). To be noted: casein substrate, 100 μM ATP (Km ATP), 120 min ambient temperature. The format is biochemical. The protocol: (§1) The protein sequences of the kinases targeted and accompanying information are described in publically available data base http://www.uniprot.org/uniprot/for ALK1 www.uniprot.org/uniprot/P37023, for ALK2 www.uniprot.org/uniprot/Q04771 and for ALK5 www.uniprot.org/uniprot/P36897. IC50 determination of the novel inhibitors described was performed at Reaction Biology Corp., Malvern, Pa., USA, with assay conditions open to public at www.reactionbiology.com/webapps/site/KinaseDetail.aspx?page=Kinases&id=1, and www.reactionbiology.com/webapps/site/Kinase Assay Protocol.aspx. In addition, they were specified previously in Anastassiadis et al. Nat. Biotechnol. 29(11): 1039-1045. doi:10.1038/nbt.2017.
A1) ALK1 Kinase Inhibition Assay
(§2) was performed with N-terminally GST-modified kinase domain ACVRL1 (139-503) and 20 mg/ml Casein as substrate in reaction buffer of 20 mM HEPES pH 7.5, 10 mM MgCl2, 1 mM EGTA, 0.02% Brij, 0.02 mg/ml BSA, 0.1 mM Na3VO4, 2 mM DTT, 1% DMSO. […] Reactions were carried out at ambient temperature for 120 min, followed by spotting of the reactions onto P81 ion exchange filter paper (Whatman Inc., Picataway, N.J., USA). Unbound phosphate was removed by extensive washing of filters in 0.75% phosphoric acid. After subtraction of background derived from control reactions without enzyme activity, kinase activity data was expressed as the percent remaining kinase activity in test samples compared to vehicle (DMSO) reactions. IC50 values and curve fits were obtained using Prism (GraphPad Software).

Experiment [2] deals with T2, ALK2 (GST-modified kinase domain ACVR1(145-509)) (Homo sapiens, UniProt Q04771).
T2 construct: N-terminally GST-modified kinase domain ACVR1(145-509); GST (N)
T2 sequence (Q04771 145-509): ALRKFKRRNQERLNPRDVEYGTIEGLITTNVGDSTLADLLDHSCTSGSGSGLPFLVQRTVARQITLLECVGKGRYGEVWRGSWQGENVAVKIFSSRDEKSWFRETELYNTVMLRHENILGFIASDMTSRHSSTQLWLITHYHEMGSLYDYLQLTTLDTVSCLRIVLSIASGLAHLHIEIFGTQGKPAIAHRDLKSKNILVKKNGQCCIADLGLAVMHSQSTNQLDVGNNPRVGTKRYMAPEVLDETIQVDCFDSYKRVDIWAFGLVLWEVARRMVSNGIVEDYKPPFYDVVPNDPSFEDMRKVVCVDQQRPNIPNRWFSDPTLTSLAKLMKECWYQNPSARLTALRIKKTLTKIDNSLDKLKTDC
The experiment is described as follows: ALK2 kinase inhibition assay (33P-ATP filter binding, Reaction Biology). The format is biochemical. The following applies: casein substrate, 20 μM ATP (Km ATP), 120 min ambient temperature. The protocol: as §1
A2) ALK2 Kinase Inhibition Assay
as §2, with “performed similar to procedure A1” for “performed”, “domain ACVR1(145-509)” for “domain ACVRL1 (139-503)”, “and 1” for “and 20”

Experiment [3] has as its target T3, ALK5 (TGFβR1; GST-modified TGFBR1 (200-503)) (Homo sapiens, UniProt P36897).
T3 construct: Using GST-Modified TGFBR1 (200-503); GST
T3 sequence (P36897 200-503): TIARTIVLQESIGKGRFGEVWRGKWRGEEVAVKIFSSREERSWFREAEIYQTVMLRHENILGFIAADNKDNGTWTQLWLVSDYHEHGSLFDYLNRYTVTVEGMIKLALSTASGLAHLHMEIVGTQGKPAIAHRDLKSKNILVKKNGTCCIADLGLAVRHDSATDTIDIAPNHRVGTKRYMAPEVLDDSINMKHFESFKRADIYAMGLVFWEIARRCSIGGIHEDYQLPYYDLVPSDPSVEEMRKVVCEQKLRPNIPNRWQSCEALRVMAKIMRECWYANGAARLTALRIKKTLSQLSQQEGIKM
The experiment is described as follows: ALK5 kinase inhibition assay (33P-ATP filter binding, Reaction Biology). The following applies: casein substrate, 200 μM ATP. Format: biochemical. The protocol: as §1
A3) ALK5 Kinase Inhibition Assay Was Performed Similar to Procedures A1 and A2 Using GST-Modified TGFBR1 (200-503) and 1 mg/ml Casein as Substrate at 200 μM ATP.

In experiment [4] the test system is ALK1-mediated SMAD1/5 phosphorylation in HUVEC cells. The experiment is described as follows: Cell-based immunofluorescence assay for ALK1-mediated SMAD1/5 phosphorylation in HUVEC cells. To be noted: Homo sapiens, 1.5 ng/ml BMP-9 with compound for 2 h, % nuclei with pSMAD1/5 signal, read-out: Smad 1/5 IC50. An excerpt: In vitro cell-based Immunofluorescence-Assay for identification of inhibitors of ALK1-mediated SMAD1/5 phosphorylation in HUVEC cells:
ALK1 is a type I cell-surface receptor for the TGF-β superfamily of ligands. In adults ALK1 is mainly expressed on activated endothelial cells, e.g. during wound healing or in tumor angiogenesis. BMP9 and BMP10 are high affinity ligands for ALK1.
BMP9 and BMP10 binding leads to the phosphorylation of so-called Smad1 at Ser463 and Ser465 in the carboxy-terminal motif SSXS, as well as Smad5 and Smad8 at their corresponding sites. These phosphorylated Smads dimerize with the coactivating Smad4 and translocate to the nucleus, where they stimulate transcription of target genes.
Primary endothelial cells (HUVEC: Human Umbilical Vein Endothelial Cells; supplier Promocell) are cultivated in the culture medium obtained from Promocell (with supplements corresponding to 5% FCS) for maximum 5 passages, seeded into black 384-well culture plates with clear bottom (3000 cells/well/30 μl), and incubated for 16-24 hours at 37° C., 5% CO2 and 90% rH.
The following day cells were serum-starved for 2-3 h in order to stop TGF-ß-mediated signalling derived from ligands present in FBS. 1.5 ng/ml BMP-9 was than added in parallel with test compounds for 2 h at 37° C., 5% CO2 in order to identify compounds which block functional activity of ALK1 leading to phosphorylation and nuclear translocation of SMAD1/5/8.
After fixation (15 min 4% Formaldehyd in PBS) and permeabilization (10 min 0.2% Triton X-100 in PBS) an indirect immunocytochemical staining is performed with a specific Phospho-Smad1/5 (Ser463/465) antibody (Cell Signaling #9516) and Alexa488-labelled secondary anti-rabbit-IgG-antibody. DNA staining with Propidium Iodide allowed parallel cell counting. Image acquisition and analysis was performed on an MDS ImageXpress Ultra confocal High Content Reader using the image analysis software MetaXpress. Final read-out were % nuclei with a pSMAD1/5 signal above a defined background.
The final DMSO concentration in the assay was 0.5%. DMSO-treated HUVEC cells served as neutral control (=0%) and cells treated with 10 μM of a reference inhibitor described in a patent served as inhibitor control (=−100%). Raw data were normalised to the neutral and inhibitory references. The assay was performed as dose response (10 compound dilutions, 1 nM-30 μM).

As for `O=c1[nH]cc(-c2cccc(CO)c2)cc1-c1nc2cc(N3CCCNCC3)ccc2[nH]1` [Compound A17, 3-(5-[1,4]Diazepan-1-yl-1H-benzimidazol-2-yl)-5-(3-hydroxymethyl-phenyl)-1H-pyridin-2-one], the IC50 in experiment [1] is 27 nM; in experiment [2], 25 nM; in experiment [3], 3300 nM; in experiment [4], 2500 nM.

Turning to `O=c1[nH]cc(-c2ccc(F)c(CO)c2)cc1-c1nc2cc(N3CCNCC3)ccc2[nH]1` [Compound A20, 5-(4-Fluoro-3-hydroxymethyl-phenyl)-3-(5-piperazin-1-yl-1H-benzimidazol-2-yl)-1H-pyridin-2-one], the IC50 in experiment [1] was determined as 24 nM; in experiment [2], 19 nM; in experiment [3] it was 4400 nM; in experiment [4], 7800 nM.

Turning to `O=c1[nH]cc(-c2cc(F)c(CO)c(F)c2)cc1-c1nc2cc(N3CCNCC3)ccc2[nH]1` [Compound A21, 5-(3,5-Difluoro-4-hydroxymethyl-phenyl)-3-(5-piperazin-1-yl-1H-benzimidazol-2-yl)-1H-pyridin-2-one dihydrochloride], the IC50 is 8.6 nM in experiment [1], 23 nM in experiment [2], 5100 nM in experiment [3] and 6100 nM in experiment [4].

Regarding `O=c1[nH]cc(-c2cc(CO)ccc2Cl)cc1-c1nc2cc(N3CCNCC3)ccc2[nH]1` [Compound A22, 5-(2-Chloro-5-hydroxymethyl-phenyl)-3-(5-piperazin-1-yl-1H-benzimidazol-2-yl)-1H-pyridin-2-one dihydrochloride], the IC50 in experiment [1] is 3.5 nM; in experiment [2], 16 nM; in experiment [3], 2100 nM; in experiment [4], 3300 nM.

For `O=c1[nH]cc(-c2cccc(CO)c2F)cc1-c1nc2cc(N3CCNCC3)ccc2[nH]1` [Compound A23, 5-(2-Fluoro-3-hydroxymethyl-phenyl)-3-(5-piperazin-1-yl-1H-benzimidazol-2-yl)-1H-pyridin-2-one], the IC50 in experiment [1] came out at 2 nM; in experiment [2], 22 nM; in experiment [3] it was 1600 nM; in experiment [4] it was 130 nM.

Take `NC1CCN(c2ccc3[nH]c(-c4cc(-c5cccc(CO)c5)c[nH]c4=O)nc3c2)CC1` [Compound A26, 3-[5-(4-Amino-piperidin-1-yl)-1H-benzimidazol-2-yl]-5-(3-hydroxymethyl-phenyl)-1H-pyridin-2-one dihydrochloride]: the IC50 in experiment [1] was 5 nM; in experiment [2], 31 nM; in experiment [3] it was 1900 nM; in experiment [4], 1800 nM.

With `CN1CCN(c2ccc3[nH]c(-c4cc(-c5cccc(CO)c5)c[nH]c4=O)nc3c2)CC1` [Compound A27, 5-(3-Hydroxymethyl-phenyl)-3-[5-(4-methyl-piperazin-1-yl)-1H-benzimidazol-2-yl]-1H-pyridin-2-one], the IC50 amounted to 13 nM in experiment [1], 12 nM in experiment [2], 1700 nM in experiment [3] and 450 nM in experiment [4].

Consider `CN1CCN(c2ccc3[nH]c(-c4cc(-c5ccnc6ccccc56)c[nH]c4=O)nc3c2)CC1` [Compound A29, 3-[5-(4-Methyl-piperazin-1-yl)-1H-benzimidazol-2-yl]-5-quinolin-4-yl-1H-pyridin-2-one], for which the IC50 in experiment [1] is 92 nM; in experiment [2] it was 63 nM; in experiment [3], 1700 nM; in experiment [4] it was 3700 nM.

Regarding `CN1CCCN(c2ccc3[nH]c(-c4cc(-c5cccc(CO)c5)c[nH]c4=O)nc3c2)CC1` [Compound A33, 5-(3-Hydroxymethyl-phenyl)-3-[5-(4-methyl-[1,4]diazepan-1-yl)-1H-benzimidazol-2-yl]-1H-pyridin-2-one], the IC50 in experiment [1] was 14 nM; in experiment [2], 11 nM; in experiment [3], 1900 nM; in experiment [4], 900 nM.

`CN1CCN(c2ccc3[nH]c(-c4cc(-c5ccc(F)c(CO)c5)c[nH]c4=O)nc3c2)CC1` [Compound A34, 5-(4-Fluoro-3-hydroxymethyl-phenyl)-3-[5-(4-methyl-piperazin-1-yl)-1H-benzimidazol-2-yl]-1H-pyridin-2-one]: the IC50 turned out to be 30 nM in experiment [1], 20 nM in experiment [2], 4800 nM in experiment [3] and 2000 nM in experiment [4].

Turning to `CN1CCN(c2ccc3[nH]c(-c4cc(-c5ccc(CO)cc5)c[nH]c4=O)nc3c2)CC1` [Compound A35, 5-(4-Hydroxymethyl-phenyl)-3-[5-(4-methyl-piperazin-1-yl)-1H-benzimidazol-2-yl]-1H-pyridin-2-one], the IC50 in experiment [1] came out at 16 nM; in experiment [2], 11 nM; in experiment [3] it was 3200 nM; in experiment [4] it was 720 nM.
